{
  "source": "patent US20120046329A1",
  "about": "“MODULATORS OF NOD1 AND NOD2 SIGNALING, METHODS OF IDENTIFYING MODULATORS OF NOD1 AND NOD2 SIGNALING, AND USES THEREOF” (Sanford-Burnham Medical Research Institute, priority 2010, published 2012)",
  "key": {"[1]": {"assay": "Microsomal stability, mouse", "format": "in vitro ADME"}, "NOD2": {"molecular_target": "NOD2 (Homo sapiens, UniProt Q9HC29)", "sequence (Q9HC29 whole entry)": "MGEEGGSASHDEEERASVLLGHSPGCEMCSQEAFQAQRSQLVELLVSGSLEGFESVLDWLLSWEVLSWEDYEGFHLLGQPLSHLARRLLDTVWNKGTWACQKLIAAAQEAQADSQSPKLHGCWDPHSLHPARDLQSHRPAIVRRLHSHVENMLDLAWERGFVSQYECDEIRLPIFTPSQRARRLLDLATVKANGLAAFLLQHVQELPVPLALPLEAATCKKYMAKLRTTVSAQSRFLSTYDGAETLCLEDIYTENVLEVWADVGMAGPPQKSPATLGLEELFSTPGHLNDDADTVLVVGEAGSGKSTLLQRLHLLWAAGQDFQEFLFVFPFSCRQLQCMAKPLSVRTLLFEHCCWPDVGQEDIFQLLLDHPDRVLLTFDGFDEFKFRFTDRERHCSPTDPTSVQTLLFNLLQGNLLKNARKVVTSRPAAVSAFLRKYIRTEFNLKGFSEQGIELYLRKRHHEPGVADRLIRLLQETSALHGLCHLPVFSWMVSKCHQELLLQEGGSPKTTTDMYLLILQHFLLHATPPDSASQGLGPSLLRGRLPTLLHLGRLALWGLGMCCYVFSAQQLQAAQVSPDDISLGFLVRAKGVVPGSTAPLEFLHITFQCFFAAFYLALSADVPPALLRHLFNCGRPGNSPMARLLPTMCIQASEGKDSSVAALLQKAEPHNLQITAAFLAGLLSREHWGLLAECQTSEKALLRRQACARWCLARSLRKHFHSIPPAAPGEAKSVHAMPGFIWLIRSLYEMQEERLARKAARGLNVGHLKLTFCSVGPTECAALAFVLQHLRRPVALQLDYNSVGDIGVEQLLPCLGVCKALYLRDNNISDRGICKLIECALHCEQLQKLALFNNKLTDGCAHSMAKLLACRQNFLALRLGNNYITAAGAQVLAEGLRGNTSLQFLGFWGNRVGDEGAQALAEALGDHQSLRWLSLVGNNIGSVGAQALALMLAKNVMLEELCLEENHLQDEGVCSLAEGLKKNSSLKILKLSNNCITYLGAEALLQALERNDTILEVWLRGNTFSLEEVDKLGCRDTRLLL", "assay": "Subcellular fractionation of MCF-7 cells expressing tagged NOD2", "conditions": "MCF-7, 5 μM, 24 h"}, "[2]": {"assay": "Plasma protein binding, mouse", "format": "in vitro ADME", "conditions": "for Plasma Protein Binding (% Bound): Mouse"}, "NOD1": {"molecular_target": "T1, NOD1 (Homo sapiens, UniProt Q9Y239)", "T1 sequence (Q9Y239 1-953)": "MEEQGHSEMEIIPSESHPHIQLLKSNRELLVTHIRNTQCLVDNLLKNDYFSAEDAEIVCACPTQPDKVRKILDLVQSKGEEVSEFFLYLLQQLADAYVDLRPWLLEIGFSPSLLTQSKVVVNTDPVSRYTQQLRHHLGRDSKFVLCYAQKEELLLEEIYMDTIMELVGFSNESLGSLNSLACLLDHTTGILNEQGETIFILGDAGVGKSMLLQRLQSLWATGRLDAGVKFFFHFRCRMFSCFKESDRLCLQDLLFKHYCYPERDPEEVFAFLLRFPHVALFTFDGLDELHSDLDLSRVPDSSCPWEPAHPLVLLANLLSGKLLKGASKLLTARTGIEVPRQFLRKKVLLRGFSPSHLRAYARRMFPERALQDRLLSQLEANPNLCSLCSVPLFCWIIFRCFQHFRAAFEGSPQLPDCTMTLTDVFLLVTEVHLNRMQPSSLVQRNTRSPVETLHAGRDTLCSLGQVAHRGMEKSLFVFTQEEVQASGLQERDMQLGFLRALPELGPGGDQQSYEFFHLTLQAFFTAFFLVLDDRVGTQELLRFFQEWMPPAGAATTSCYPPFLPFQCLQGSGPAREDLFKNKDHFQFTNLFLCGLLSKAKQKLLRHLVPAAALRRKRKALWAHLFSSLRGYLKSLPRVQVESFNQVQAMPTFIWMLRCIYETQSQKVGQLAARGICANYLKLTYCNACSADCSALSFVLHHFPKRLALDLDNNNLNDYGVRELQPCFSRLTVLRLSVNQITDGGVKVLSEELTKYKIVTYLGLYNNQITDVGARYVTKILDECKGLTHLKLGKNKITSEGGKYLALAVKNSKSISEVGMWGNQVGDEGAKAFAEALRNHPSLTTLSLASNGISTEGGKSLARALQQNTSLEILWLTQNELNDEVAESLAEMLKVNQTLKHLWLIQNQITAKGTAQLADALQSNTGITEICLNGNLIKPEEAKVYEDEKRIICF", "assay": "γ-tri-DAP-induced IkBα mRNA expression", "format": "cell-based"}, "[3]": {"test_system": "Fa2N-4 immortalized human hepatocytes", "assay": "Toxicity towards Fa2N-4 immortalized human hepatocytes", "format": "cell-based"}, "TNF-α induced NF-κB": {"test_system": "TNF-α induced NF-κB", "assay": "TNF-α-induced NF-κB luciferase reporter counterscreen, HEK293T", "format": "cell-based, human"}, "[4]": {"assay": "Plasma protein binding, human", "format": "in vitro ADME", "conditions": "for Plasma Protein Binding (% Bound): Human"}, "[5]": {"assay": "Solubility in aqueous buffer"}},
  "note": "Where two headings read alike, the source gives them in different places.",
  "data": [
    {"smiles": "Cc1ccc(S(=O)(=O)n2c(N)nc3ccccc32)cc1", "note": "[Compound 1]", "values": [
      {"measurement": "Microsomal Stability (% Remaining at 1 hr)", "setting": "[1]; Mouse, 1 hr", "value": 0.83, "unit": "% Remaining"},
      {"measurement": "Stability in microsomes (in words)", "setting": "[1]; mouse", "value": "low"},
      {"measurement": "NOD2 compartmentalization", "setting": "NOD2", "value": "No changes"},
      {"measurement": "Plasma Protein Binding (% Bound)", "setting": "[2]; 1 μM", "value": 95.45, "unit": "% Bound"},
      {"measurement": "Plasma Protein Binding (% Bound)", "setting": "[2]; 10 μM", "value": 94.91, "unit": "% Bound"},
      {"measurement": "Plasma protein binding (in words)", "setting": "[2]; mouse", "value": "high"},
      {"measurement": "γ-tri-DAP-induced expression of IkBα at the mRNA level", "setting": "NOD1", "value": "inhibited"},
      {"measurement": "Toxicity (LD50, μM)", "setting": "[3]", "value": "> 50", "unit": "µM"},
      {"measurement": "Toxicity (LD50, μM)", "setting": "[3]; listed as MLS-0350096", "value": ">50", "unit": "µM"},
      {"measurement": "IC50", "setting": "TNF-α induced NF-κB; Homo sapiens, HEK-293T, read-out: TNF-α IC50(μM)", "value": "> 20", "unit": "µM"},
      {"measurement": "Activity on TNFα induced NF-κB (in words)", "setting": "TNF-α induced NF-κB; reporter assay, listed as CID1088438", "value": "selective"},
      {"measurement": "Plasma Protein Binding (% Bound)", "setting": "[4]; 1 μM", "value": 97.74, "unit": "% Bound"},
      {"measurement": "Plasma Protein Binding (% Bound)", "setting": "[4]; 10 μM", "value": 97.45, "unit": "% Bound"},
      {"measurement": "Plasma protein binding (in words)", "setting": "[4]; human", "value": "high"},
      {"measurement": "Solubility", "setting": "[5]; aqueous buffer, pH 6.2, aqueous buffer", "value": 1.7, "unit": "µg/mL"},
      {"measurement": "Solubility", "setting": "[5]; pH 5.0, aqueous buffer", "value": 2.0, "unit": "µg/mL"},
      {"measurement": "Solubility", "setting": "[5]; pH 7.4, aqueous buffer", "value": 2.0, "unit": "µg/mL"},
      {"measurement": "Solubility (in words)", "setting": "[5]; three pH levels", "value": "low"}
    ]}
  ]
}
